Measured values reported in article PMC9234961 (Journal of Medicinal Chemistry, 2022).

What was measured:
kinases (468) [1] = target: kinases (468) (Homo sapiens, UniProt Q16584); details: MLK3 (MAP3K11); 1000 nM
kinases (468) [2] = target: kinases (468) (Homo sapiens, UniProt Q86Y07); details: kinase VRK2 (Entrez VRK2); compound concentration 1000 nM
kinases (468) [3] = target: kinases (468) (Homo sapiens, UniProt Q9Y2H9); details: MAST1; 1000 nM
kinases (468) [4] = target: kinases (468) (Homo sapiens, UniProt Q12866); details: MERTK; 1000 nM
kinases (468) [5] = target: kinases (468) (Homo sapiens, UniProt Q86UE8); details: kinase TLK2 (Entrez TLK2); compound concentration 1000 nM
kinases (468) [6] = target: kinases (468) (Homo sapiens, UniProt Q06418); details: kinase TYRO3 (Entrez TYRO3); compound concentration 1000 nM
kinases (468) [7] = target: kinases (468) (Homo sapiens, UniProt P54764); details: EPHA4; 1000 nM
kinases (468) [8] = target: kinases (468) (Homo sapiens, UniProt Q13873); details: BMPR2; 1000 nM
kinases (468) (Homo sapiens, UniProt Q13873), sequence (Q13873 27-1038): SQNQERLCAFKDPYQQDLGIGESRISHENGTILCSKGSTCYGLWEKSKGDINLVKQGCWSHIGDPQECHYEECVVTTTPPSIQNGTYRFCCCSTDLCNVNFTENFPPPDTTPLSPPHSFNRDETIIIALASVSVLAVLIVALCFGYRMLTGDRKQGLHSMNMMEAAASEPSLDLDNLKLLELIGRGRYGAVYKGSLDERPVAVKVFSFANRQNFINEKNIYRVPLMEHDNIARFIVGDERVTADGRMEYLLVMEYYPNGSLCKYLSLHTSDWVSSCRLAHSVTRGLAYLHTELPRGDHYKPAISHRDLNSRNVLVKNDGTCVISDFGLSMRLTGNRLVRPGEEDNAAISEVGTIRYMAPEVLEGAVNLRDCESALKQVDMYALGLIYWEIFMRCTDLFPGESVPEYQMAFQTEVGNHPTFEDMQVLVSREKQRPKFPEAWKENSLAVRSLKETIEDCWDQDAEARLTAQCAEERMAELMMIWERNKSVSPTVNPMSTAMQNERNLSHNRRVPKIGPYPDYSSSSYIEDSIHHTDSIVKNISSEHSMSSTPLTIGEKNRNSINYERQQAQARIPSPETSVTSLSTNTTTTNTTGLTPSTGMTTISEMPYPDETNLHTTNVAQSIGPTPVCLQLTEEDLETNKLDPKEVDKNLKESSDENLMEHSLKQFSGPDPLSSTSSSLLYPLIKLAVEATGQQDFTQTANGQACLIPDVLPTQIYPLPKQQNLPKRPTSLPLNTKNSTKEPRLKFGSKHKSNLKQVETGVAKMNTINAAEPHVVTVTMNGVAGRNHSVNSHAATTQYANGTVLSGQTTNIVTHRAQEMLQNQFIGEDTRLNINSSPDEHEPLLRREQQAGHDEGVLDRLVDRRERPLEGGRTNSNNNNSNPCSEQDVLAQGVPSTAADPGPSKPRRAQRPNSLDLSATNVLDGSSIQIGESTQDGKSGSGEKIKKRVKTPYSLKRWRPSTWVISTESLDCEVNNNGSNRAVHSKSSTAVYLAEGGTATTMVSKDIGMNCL

kinases (468) [9] = target: kinases (468) (Homo sapiens, UniProt Q13705); details: ACVR2B; 1000 nM
kinases (468) (Homo sapiens, UniProt Q13705), sequence (Q13705 19-512): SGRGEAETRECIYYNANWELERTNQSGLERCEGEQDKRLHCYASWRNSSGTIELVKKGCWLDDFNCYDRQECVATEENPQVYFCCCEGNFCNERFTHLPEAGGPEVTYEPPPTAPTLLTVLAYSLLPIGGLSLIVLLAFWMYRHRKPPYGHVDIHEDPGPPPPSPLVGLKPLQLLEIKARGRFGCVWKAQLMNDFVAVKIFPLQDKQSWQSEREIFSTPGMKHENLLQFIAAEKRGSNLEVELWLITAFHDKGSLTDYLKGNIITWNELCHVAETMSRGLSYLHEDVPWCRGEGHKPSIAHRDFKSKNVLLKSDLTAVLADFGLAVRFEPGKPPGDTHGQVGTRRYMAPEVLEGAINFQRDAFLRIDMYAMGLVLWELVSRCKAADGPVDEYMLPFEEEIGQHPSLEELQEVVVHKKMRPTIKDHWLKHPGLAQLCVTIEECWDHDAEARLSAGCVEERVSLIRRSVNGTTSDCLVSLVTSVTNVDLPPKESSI

kinases (468) [10] = target: kinases (468) (Homo sapiens, UniProt P53667); details: LIMK1; 1000 nM
kinases (468) [11] = target: kinases (468) (Homo sapiens, UniProt P08581, Y1235D); details: MET(Y1235D); 1000 nM
kinases (468) (Homo sapiens, UniProt P08581, Y1235D), sequence (P08581 25-1390 Y1235D): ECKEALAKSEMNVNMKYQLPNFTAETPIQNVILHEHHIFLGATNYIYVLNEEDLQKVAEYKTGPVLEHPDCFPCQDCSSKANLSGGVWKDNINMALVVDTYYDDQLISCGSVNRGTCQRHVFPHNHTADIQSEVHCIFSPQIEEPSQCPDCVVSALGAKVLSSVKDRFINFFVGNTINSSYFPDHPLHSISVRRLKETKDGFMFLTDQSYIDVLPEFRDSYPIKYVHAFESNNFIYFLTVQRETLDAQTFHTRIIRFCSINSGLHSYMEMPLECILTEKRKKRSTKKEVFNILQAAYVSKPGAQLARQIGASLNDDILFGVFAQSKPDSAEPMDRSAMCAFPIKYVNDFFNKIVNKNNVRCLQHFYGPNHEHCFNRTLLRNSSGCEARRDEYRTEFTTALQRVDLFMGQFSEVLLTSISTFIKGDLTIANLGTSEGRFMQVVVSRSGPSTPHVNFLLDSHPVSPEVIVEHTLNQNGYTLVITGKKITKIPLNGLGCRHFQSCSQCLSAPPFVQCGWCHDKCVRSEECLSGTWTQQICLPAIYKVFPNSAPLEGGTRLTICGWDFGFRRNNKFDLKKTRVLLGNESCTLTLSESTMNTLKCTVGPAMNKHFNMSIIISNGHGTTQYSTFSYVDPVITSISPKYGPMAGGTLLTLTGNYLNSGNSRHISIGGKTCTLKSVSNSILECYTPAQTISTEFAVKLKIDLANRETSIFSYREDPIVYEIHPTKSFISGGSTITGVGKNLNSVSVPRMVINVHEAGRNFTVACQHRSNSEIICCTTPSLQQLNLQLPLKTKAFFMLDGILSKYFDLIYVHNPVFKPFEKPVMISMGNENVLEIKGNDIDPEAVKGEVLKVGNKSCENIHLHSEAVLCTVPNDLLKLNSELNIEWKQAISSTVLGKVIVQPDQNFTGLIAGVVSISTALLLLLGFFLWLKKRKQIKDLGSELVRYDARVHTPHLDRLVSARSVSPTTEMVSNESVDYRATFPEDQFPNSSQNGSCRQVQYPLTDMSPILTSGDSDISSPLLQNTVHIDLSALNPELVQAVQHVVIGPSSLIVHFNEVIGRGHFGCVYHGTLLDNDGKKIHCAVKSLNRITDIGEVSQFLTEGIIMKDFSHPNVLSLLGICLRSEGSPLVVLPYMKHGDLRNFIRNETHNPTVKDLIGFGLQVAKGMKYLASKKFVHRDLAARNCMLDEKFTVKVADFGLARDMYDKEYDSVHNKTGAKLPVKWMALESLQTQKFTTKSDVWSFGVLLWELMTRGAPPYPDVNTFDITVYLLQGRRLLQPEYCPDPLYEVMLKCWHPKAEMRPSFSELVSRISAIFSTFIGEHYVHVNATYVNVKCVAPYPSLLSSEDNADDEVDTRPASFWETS

kinases (468) [12] = target: kinases (468) (Homo sapiens, UniProt P04629); details: kinase TRKA (Entrez NTRK1); compound concentration 1000 nM
kinases (468) (Homo sapiens, UniProt P04629), sequence (P04629 33-796): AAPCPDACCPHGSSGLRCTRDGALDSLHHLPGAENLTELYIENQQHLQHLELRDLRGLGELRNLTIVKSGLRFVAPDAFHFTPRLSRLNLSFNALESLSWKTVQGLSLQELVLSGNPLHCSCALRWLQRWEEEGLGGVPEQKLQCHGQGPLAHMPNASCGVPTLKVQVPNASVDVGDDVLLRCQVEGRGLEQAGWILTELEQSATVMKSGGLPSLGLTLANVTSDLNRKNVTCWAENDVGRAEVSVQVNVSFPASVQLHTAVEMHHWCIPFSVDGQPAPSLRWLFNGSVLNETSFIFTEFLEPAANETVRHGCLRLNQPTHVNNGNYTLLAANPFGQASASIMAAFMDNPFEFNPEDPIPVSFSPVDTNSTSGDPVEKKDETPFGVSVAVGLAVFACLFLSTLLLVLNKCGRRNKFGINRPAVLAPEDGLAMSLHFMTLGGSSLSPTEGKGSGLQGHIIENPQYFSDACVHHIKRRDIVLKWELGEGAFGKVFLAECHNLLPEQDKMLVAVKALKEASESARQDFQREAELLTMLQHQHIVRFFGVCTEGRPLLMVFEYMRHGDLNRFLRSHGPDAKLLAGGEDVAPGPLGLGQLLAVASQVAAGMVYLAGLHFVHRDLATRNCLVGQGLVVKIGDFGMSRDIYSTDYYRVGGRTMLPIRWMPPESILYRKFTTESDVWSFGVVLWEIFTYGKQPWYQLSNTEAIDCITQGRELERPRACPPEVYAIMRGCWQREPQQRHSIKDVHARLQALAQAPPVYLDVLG

kinases (468) [13] = target: kinases (468) (Homo sapiens, UniProt Q00536); details: PCTK1 (CDK16); 1000 nM
kinases (468) (Homo sapiens, UniProt Q00536), sequence (Q00536 whole entry): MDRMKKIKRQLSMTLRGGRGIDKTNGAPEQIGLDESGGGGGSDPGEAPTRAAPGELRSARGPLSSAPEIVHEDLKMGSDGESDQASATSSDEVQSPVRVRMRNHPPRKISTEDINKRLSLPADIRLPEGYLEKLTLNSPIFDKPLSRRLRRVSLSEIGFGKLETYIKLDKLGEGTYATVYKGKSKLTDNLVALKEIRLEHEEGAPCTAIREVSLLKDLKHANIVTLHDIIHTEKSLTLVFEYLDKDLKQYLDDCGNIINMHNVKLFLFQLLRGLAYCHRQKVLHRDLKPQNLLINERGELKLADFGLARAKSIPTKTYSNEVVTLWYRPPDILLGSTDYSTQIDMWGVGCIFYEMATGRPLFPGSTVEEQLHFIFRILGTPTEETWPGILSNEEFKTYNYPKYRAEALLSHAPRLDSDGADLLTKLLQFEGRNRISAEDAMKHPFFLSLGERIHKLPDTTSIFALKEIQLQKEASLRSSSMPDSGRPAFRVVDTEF

kinases (468) [14] = target: kinases (468) (Homo sapiens, UniProt P00519, M351T); details: ABL1(M351T)-phosphorylated; 1000 nM
kinases (468) [15] = target: kinases (468) (Homo sapiens, UniProt P49759); details: CLK1; 1000 nM
kinases (468) [16] = target: kinases (468) (Homo sapiens, UniProt Q8NFD2); details: ANKK1; 1000 nM
kinases (468) [17] = target: kinases (468) (Homo sapiens, UniProt Q5VT25); details: MRCKA (CDC42BPA); 1000 nM
kinases (468) [18] = target: kinases (468) (Homo sapiens, UniProt O00329); details: PIK3CD; 1000 nM
kinases (468) [19] = target: kinases (468) (Homo sapiens, UniProt O96017); details: CHEK2; 1000 nM
kinases (468) [20] = target: kinases (468) (Homo sapiens, UniProt P07332); details: FES; 1000 nM
kinases (468) [21] = target: kinases (468) (Homo sapiens, UniProt Q13557); details: CAMK2D; 1000 nM
[22] = Microsomal clearance assay (RLM); assay type: in vitro ADME; details: rat liver microsomes, 1 μM compound
Procedure: 6. Supplementary experimental: in vitro DMPK assays
6.1 Microsomal clearance assay
Microsomal clearance was determined in female CD1 mice, female Sprague–Dawley rats, and mixed gender human liver microsomes obtained from BioIVT (Peterborough, U.K.) following incubation of 1 μM compound at 37 °C in 0.5 mg/mL microsomal protein, 3 mmol/L MgCl2, 1 mmol/L NADPH, 2.5 mmol/L and 10 mmol/L phosphate buffer (pH 7.4) (all purchased from Sigma-Aldrich, Gillingham, U.K). Reactions were started by addition of the cofactors following 10 min preincubation of microsomes with test compound and were terminated at −1, 0, 5, 10, 15, and 30 min with three volumes of ice-cold methanol containing internal standard. Samples were centrifuged at 2800g for 30 min at 4 °C and the supernatants analyzed.
Control incubations were prepared as above with omission of cofactors. Compound measurements were […]
separation with a 3 min gradient of 0.1% formic acid in methanol on a Kinetex C18, 50 × 2.1 mm 2.6 μm UPLC column (Phenomenex, Macclesfield, UK). […]

kinases (468) (Homo sapiens, UniProt Q86Y07), sequence (Q86Y07 whole entry): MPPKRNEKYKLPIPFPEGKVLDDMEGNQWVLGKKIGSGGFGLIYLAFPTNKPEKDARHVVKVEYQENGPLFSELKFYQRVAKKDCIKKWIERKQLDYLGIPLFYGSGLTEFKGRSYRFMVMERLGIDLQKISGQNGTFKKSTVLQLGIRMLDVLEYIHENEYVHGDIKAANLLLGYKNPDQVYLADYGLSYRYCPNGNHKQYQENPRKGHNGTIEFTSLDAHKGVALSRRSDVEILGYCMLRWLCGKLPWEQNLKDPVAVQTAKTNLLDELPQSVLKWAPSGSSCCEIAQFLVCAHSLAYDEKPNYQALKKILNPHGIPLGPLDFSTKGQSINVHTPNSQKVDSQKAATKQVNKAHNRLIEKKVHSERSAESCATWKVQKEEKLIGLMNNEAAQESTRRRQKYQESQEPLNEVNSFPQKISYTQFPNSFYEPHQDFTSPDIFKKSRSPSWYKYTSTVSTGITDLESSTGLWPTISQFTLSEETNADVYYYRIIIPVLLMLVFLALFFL

C[C@H]1C[C@@H](O)CN(c2ncc(Cl)c(Nc3ccc4c(c3)c3c(c(=O)n4C)OCC(F)(F)[C@H](C4CC4)N3)n2)C1 [CCT373566_9A]
Percent Control (kinases (468) [1]): 100% | Percent Control (kinases (468) [2]): 89% | Percent Control (kinases (468) [3]): 100% | Percent Control (kinases (468) [4]): 96% | Percent Control (kinases (468) [5]): 100% | Percent Control (kinases (468) [6]): 100% | Percent Control (kinases (468) [7]): 100% | Percent Control (kinases (468) [8]): 100% | Percent Control (kinases (468) [9]): 84% | Percent Control (kinases (468) [10]): 57% | Percent Control (kinases (468) [11]): 99% | Percent Control (kinases (468) [12]): 100% | Percent Control (kinases (468) [13]): 100% | Percent Control (kinases (468) [14]): 90% | Percent Control (kinases (468) [15]): 94% | Percent Control (kinases (468) [16]): 95% | Percent Control (kinases (468) [17]): 99% | Percent Control (kinases (468) [18]): 90% | Percent Control (kinases (468) [19]): 99% | Percent Control (kinases (468) [20]): 100% | Percent Control (kinases (468) [21]): 88%

C[C@H]1C[C@@H](O)CN(c2ncc(Cl)c(Nc3ccc4c(c3)c3c(c(=O)n4C)OCC(F)(F)[C@H](C4CC4)N3)n2)C1 [12a CCT373566, (S)-10-((5-Chloro-2-((3R,5S)-3-hydroxy-5-methylpiperidin-1-yl)pyrimidin-4-yl)amino)-2-cyclopropyl-3,3-difluoro-7-methyl-1,2,3,4-tetrahydro-[1,4]oxazepino[2,3-c]quinolin-6(7H)-one]
microsomal CLint at 0.5 h, 1 µM ([22]; female, Sprague-Dawley, pH 7.4): 3 µL/min/mg | CLint (RLM) [22]: low clearance
